Key:
[1] = Growth inhibition of embryonic cells of stage 8 Xenopus laevis blastulae at 10 ug/mL; type: functional; details: Blastula stage
[2] = Induction of cleavage arrest in embryonic cells of stage 8 Xenopus laevis blastulae; type: functional, cell-based; details: Blastula
[3] = Induction of cleavage arrest in embryonic cells of stage 8 Xenopus laevis blastulae at 1 ug/mL; type: functional, Blastula

## O=c1[nH]cc(F)c(=O)[nH]1 [FLUOROURACIL]
[1]
  inhibition at 10 µg/mL: 47%
[2]
  IC50: 26.8 µM

## C=C(C)[C@@H]1CC[C@@H]2C(=CC[C@]3(C)/C(=C(/C)CC/C=C(/C)C(=O)O)CC[C@@]23C)[C@@]1(C)CCC(=O)O [KADSURACOCCINIC ACID A]
[3]
  Activity: 85%
[2]
  IC50: 0.68 µM

Source: ChEMBL document CHEMBL1149830, “Kadsuracoccinic acids A-C, ring-A seco-lanostane triterpenes from Kadsura coccinea and their effects on embryonic cell division of Xenopus laevis” (J Nat Prod, 2008)
